According to patent US20060069132A1, “Azolecarboxamide herbicides” (priority 2004, published 2006):

Assays:
barnyardgrass [1] = assay: Test B flooded paddy test; assay type: in vivo, Echinochloa crus-galli; settings: 1000 g ai/ha, scale 0 to 100 (0 no effect, 100 complete control)
Procedure, shortened: (§1)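 Greenhouse test; postemergence application to plants at 1–4 leaves (2–18 cm); paddy species at 2 leaves; evaluated visually vs controls at 13–15 days; scale 0–100 (100 = complete control).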

blackgrass = assay: Test B postemergence herbicide test; assay type: in vivo, Alopecurus myosuroides; settings: for Plant response rating, Blackgrass: visual rating after 13 to 15 days
Procedure, shortened: as §1

rice = assay: Test B flooded paddy test; assay type: in vivo, Oryza sativa; settings: 1000 g ai/ha, scale 0 to 100 (0 no effect, 100 complete control)
Procedure, shortened: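 Postemergence plants were sprayed with formulated test chemicals at 2 to 18 cm height (1- to 4-leaf stage); paddy species were grown to the 2-leaf stage. After 13 to 15 days in a greenhouse, injury was rated visually against untreated controls on a 0–100 scale (0 = no effect, 100 = complete control).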

wheat = assay: Test B postemergence herbicide test; assay type: in vivo, Triticum aestivum; design: key to Wheat plant response rating: 0 = no effect, 100 = complete control
Procedure, shortened: (§2)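 Read-out: visual comparison with controls, scored 0 to 100, where 100 means complete control and 0 no effect. Formulated chemicals were applied postemergence to plants 2–18 cm tall (1- to 4-leaf), or to flooded-paddy plants at the 2-leaf stage, then held 13 to 15 days under glass.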

ducksalad = assay: Test B flooded paddy test; assay type: in vivo, Heteranthera limosa; settings: 1000 g ai/ha, scale 0 to 100 (0 no effect, 100 complete control)
Procedure, shortened: as §1

giant foxtail = assay: Test B pre-/postemergence herbicide test; assay type: in vivo, Setaria faberi
Procedure, shortened: (§3)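 Response was scored visually 13 to 15 days after treatment against untreated greenhouse controls, 0 meaning no effect and 100 complete control. Formulations (solvent mixture plus surfactant) went onto soil after planting, onto foliage of 1- to 4-leaf plants, and onto 2-leaf plants in a flooded paddy set including rice and barnyardgrass.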

[2] = test system: small flower umbrella sedge; assay: Test B flooded paddy test; assay type: in vivo, Cyperus difformis; settings: 1000 g ai/ha, scale 0 to 100 (0 no effect, 100 complete control)
Procedure, shortened: as §1

corn = assay: Test B pre-/postemergence herbicide test; assay type: in vivo, Zea mays
Procedure, shortened: as §3

lambsquarters = assay: Test B pre-/postemergence herbicide test; assay type: in vivo, Chenopodium album
Procedure, shortened: as §3

wild oat = assay: Test B postemergence herbicide test; assay type: in vivo, Avena fatua; settings: for Plant response rating, Oat, Wild: visual rating after 13 to 15 days
Procedure, shortened: as §2

pigweed = assay: Test B pre-/postemergence herbicide test; assay type: in vivo, Amaranthus retroflexus
Procedure, shortened: as §3

cocklebur = assay: Test B pre-/postemergence herbicide test; assay type: in vivo, Xanthium strumarium
Procedure, shortened: (§4)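 Greenhouse pot assay with simultaneous preemergence (treated seed) and postemergence (2–18 cm seedlings) applications of surfactant-containing, non-phytotoxic solvent formulations. Response scored visually 13–15 days later on a 0–100 scale, 100 meaning complete control.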

velvetleaf = assay: Test B pre-/postemergence herbicide test; assay type: in vivo, Abutilon theophrasti
Procedure, shortened: as §3

barnyardgrass [3] = assay: Test B pre-/postemergence herbicide test; assay type: in vivo, Echinochloa crus-galli
Procedure, shortened: as §4

morningglory = assay: Test B pre-/postemergence herbicide test; assay type: in vivo, Ipomoea coccinea
Procedure, shortened: as §4

[4] = Postemergence, 500 g ai/ha, scale 0 (no effect) to 100 (complete control)
[5] = postemergence, 125 g ai/ha, visual rating, scale 0 (no effect) to 100 (complete control)
[6] = Postemergence, 500 g ai/ha; visual rating after 13 to 15 days, scale 0 (no effect) to 100 (complete control)
[7] = Postemergence, 500 g ai/ha, visual rating after 13 to 15 days, scale 0 (no effect) to 100 (complete control)
[8] = Preemergence, 500 g ai/ha, scale 0 to 100
[9] = preemergence, 125 g ai/ha, 0 to 100 scale, 0 is no effect, 100 is complete control
[10] = Postemergence, 125 g ai/ha, scale 0 (no effect) to 100 (complete control)
[11] = 125 g ai/ha, visual rating, scale 0 (no effect) to 100 (complete control), postemergence
[12] = postemergence, 500 g ai/ha, scale 0 to 100, 0 is no effect, 100 is complete control
[13] = 125 g ai/ha, 0 = no effect, 100 = complete control, preemergence
[14] = 500 g ai/ha, visual rating, 0 = no effect, 100 = complete control, preemergence

C=CCn1nc(C(C)(C)C)cc1C(=O)Nc1cccc(C(=O)NCC)c1 [Compound 56]
0: Blackgrass plant response rating (blackgrass; [5]) | Plant response rating, Corn (corn; [9]) | Plant response rating, Cocklebur (cocklebur; [9]) | Plant response rating, Velvetleaf (velvetleaf; [9]) | Morningglory plant response rating (morningglory; [5])
10: Plant response rating, Blackgrass (blackgrass; [4]) | Wheat plant response rating (wheat; postemergence, 125 g ai/ha; visual rating, scale 0 (no effect) to 100 (complete control))
40: Velvetleaf plant response rating (velvetleaf; [5])
60: Plant response rating, Foxtail, Giant (giant foxtail; [9]) | Pigweed plant response rating (pigweed; [5])
20: Plant response rating, Wheat (wheat; [6]) | Plant response rating, Foxtail, Giant (giant foxtail; [7]) | Foxtail, Giant plant response rating (giant foxtail; [5]) | Corn plant response rating (corn; [8]) | Corn plant response rating (corn; [5]) | Plant response rating, Oat, Wild (wild oat; [4]) | Oat, Wild plant response rating (wild oat; [5]) | Cocklebur plant response rating (cocklebur; [8]) | Plant response rating, Barnyardgrass (barnyardgrass [3]; [7]) | Barnyardgrass plant response rating (barnyardgrass [3]; [5]) | Plant response rating, Morningglory (morningglory; [7]) | Morningglory plant response rating (morningglory; [8]) | Plant response rating, Morningglory (morningglory; [9])
70: Rice plant response rating (rice; visual rating, 13 to 15 days)
30: Plant response rating, Corn (corn; [7]) | Plant response rating, Pigweed (pigweed; [9])
100: Foxtail, Giant plant response rating (giant foxtail; [8]) | Lambsquarters plant response rating (lambsquarters; [8]) | Plant response rating, Lambsquarters (lambsquarters; [9]) | Pigweed plant response rating (pigweed; [8]) | Velvetleaf plant response rating (velvetleaf; [8])
80: Barnyardgrass plant response rating (barnyardgrass [1]; visual rating, 13 to 15 days) | Ducksalad plant response rating (ducksalad; visual rating, 13 to 15 days) | Sedge, Umbrella plant response rating ([2]; visual rating, 13 to 15 days) | Lambsquarters plant response rating (lambsquarters; [5]) | Plant response rating, Cocklebur (cocklebur; [7]) | Cocklebur plant response rating (cocklebur; [5]) | Barnyardgrass plant response rating (barnyardgrass [3]; [8])
90: Plant response rating, Lambsquarters (lambsquarters; [7]) | Plant response rating, Pigweed (pigweed; [7])
50: Plant response rating, Velvetleaf (velvetleaf; [7]) | Plant response rating, Barnyardgrass (barnyardgrass [3]; [9])

C=Cn1nc(C(C)(C)C)cc1C(=O)Nc1cccc(C(=O)N(CC)CC)c1 [Compound 34]
80: Barnyardgrass plant response rating (barnyardgrass [1]; visual rating, 13 to 15 days) | Ducksalad plant response rating (ducksalad; visual rating, 13 to 15 days) | Sedge, Umbrella plant response rating ([2]; visual rating, 13 to 15 days) | Lambsquarters plant response rating (lambsquarters; [10]) | Plant response rating, Lambsquarters (lambsquarters; [9]) | Barnyardgrass plant response rating (barnyardgrass [3]; [8])
0: Corn plant response rating (corn; [8]) | Plant response rating, Morningglory (morningglory; [9])
10: Blackgrass plant response rating (blackgrass; [10]) | Oat, Wild plant response rating (wild oat; [10]) | Plant response rating, Oat, Wild (wild oat; [4]) | Cocklebur plant response rating (cocklebur; [8])
40: Cocklebur plant response rating (cocklebur; [10])
60: Velvetleaf plant response rating (velvetleaf; [8])
100: Lambsquarters plant response rating (lambsquarters; [8]) | Pigweed plant response rating (pigweed; [8]) | Plant response rating, Pigweed (pigweed; [9])
50: Rice plant response rating (rice; visual rating, 13 to 15 days) | Plant response rating, Velvetleaf (velvetleaf; [7])
90: Foxtail, Giant plant response rating (giant foxtail; [8]) | Plant response rating, Lambsquarters (lambsquarters; [7]) | Plant response rating, Pigweed (pigweed; [7]) | Plant response rating, Cocklebur (cocklebur; [7])
20: Plant response rating, Blackgrass (blackgrass; [4]) | Plant response rating, Velvetleaf (velvetleaf; [9]) | Barnyardgrass plant response rating (barnyardgrass [3]; [10]) | Morningglory plant response rating (morningglory; [8])
30: Plant response rating, Wheat (wheat; [6]) | Foxtail, Giant plant response rating (giant foxtail; [10]) | Plant response rating, Foxtail, Giant (giant foxtail; [7]) | Plant response rating, Foxtail, Giant (giant foxtail; [9]) | Plant response rating, Barnyardgrass (barnyardgrass [3]; [7])

CCn1nc(C2(C)CC2)cc1C(=O)Nc1cc(C(=O)N2CC=CC2)ccc1F [Compound 301]
80: Lambsquarters plant response rating (lambsquarters; [12]) | Pigweed plant response rating (pigweed; [11]) | Plant response rating, Morningglory (morningglory; [14])
30: Velvetleaf plant response rating (velvetleaf; [11])
40: Blackgrass plant response rating (blackgrass; [12]) | Oat, Wild plant response rating (wild oat; [12])
0: Corn plant response rating (0 to 100 scale) (corn; [13]) | Cocklebur plant response rating (0 to 100 scale) (cocklebur; [13]) | Plant response rating, Cocklebur (cocklebur; [14])
20: Wheat plant response rating (wheat; postemergence, 500 g ai/ha; scale 0 to 100, 0 is no effect, 100 is complete control) | Foxtail, Giant plant response rating (giant foxtail; [12]) | Oat, Wild plant response rating (wild oat; [11]) | Barnyardgrass plant response rating (barnyardgrass [3]; [11])
100: Lambsquarters plant response rating (0 to 100 scale) (lambsquarters; [13]) | Plant response rating, Lambsquarters (lambsquarters; [14]) | Pigweed plant response rating (0 to 100 scale) (pigweed; [13]) | Plant response rating, Pigweed (pigweed; [14]) | Plant response rating, Velvetleaf (velvetleaf; [14]) | Velvetleaf plant response rating (velvetleaf; [12]) | Plant response rating, Barnyardgrass (barnyardgrass [3]; [14])
70: Foxtail, Giant plant response rating (0 to 100 scale) (giant foxtail; [13]) | Lambsquarters plant response rating (lambsquarters; [11])
90: Barnyardgrass plant response rating (barnyardgrass [1]) | Rice plant response rating (rice) | Ducksalad plant response rating (ducksalad) | Plant response rating, Foxtail, Giant (giant foxtail; [14]) | Sedge, Umbrella plant response rating [2] | Pigweed plant response rating (pigweed; [12]) | Morningglory plant response rating (morningglory; [12])
50: Corn plant response rating (corn; [11]) | Corn plant response rating (corn; [12]) | Cocklebur plant response rating (cocklebur; [12])
10: Blackgrass plant response rating (blackgrass; [11]) | Wheat plant response rating (wheat; 125 g ai/ha; visual rating, scale 0 (no effect) to 100 (complete control); postemergence) | Foxtail, Giant plant response rating (giant foxtail; [11]) | Plant response rating, Corn (corn; [14]) | Cocklebur plant response rating (cocklebur; [11]) | Morningglory plant response rating (0 to 100 scale) (morningglory; [13])
60: Barnyardgrass plant response rating (0 to 100 scale) (barnyardgrass [3]; [13]) | Barnyardgrass plant response rating (barnyardgrass [3]; [12]) | Morningglory plant response rating (morningglory; [11])
